Measurements reported in patent US6979676B2 (priority 2002, dated 2005).
Where two headings read alike, the source gives them in different places.

Assays:
[1] = Degradation rate of Formula I in various pH conditions (T90 at 80° C.); assay type: physicochemical
[2] = Solubility of Formula I in various vehicles; assay type: physicochemical; details: thermodynamic from solid, room temperature after 1 day
[3] = Stability of Formula I in PG/water or PG/buffers (HPLC purity, initial point vs 80° C./4 days); assay type: physicochemical; details: 5 mg/mL, initial point and 80° C./4 days
[4] = Stability of Formula I in various PG/buffer solutions (HPLC purity, initial point vs 80° C./8 days); assay type: physicochemical; details: initial point and 80° C./8 days
[5] = 50% PG/75 mM citrate buffer (pH = 4)

With `O=C1c2c(c3c4ccc(O)cc4n(C4OC(CO)C(O)C(O)C4O)c3c3[nH]c4cc(O)ccc4c23)C(=O)N1NC(CO)CO` [Formula I, 12,13-dihydro-2,10-dihydroxy-6-N-(1-hydroxymethyl-2-hydroxyethylamino)-13-(β-D-glucopyranosyl)-5H-indolo[2,3-α]pyrrolo[3,4-c]carbazole-5,7(6H)-dione] the “T90 (time required to degrade Formula I to 90% of the initial concentration)” value ([1]; pH 2) was 0.9 days, the “T90 (time required to degrade Formula I to 90% of the initial concentration)” value ([1]; pH 3, extrapolated data) was 19 days and the “T90 (time required to degrade Formula I to 90% of the initial concentration)” value ([1]; pH 4, extrapolated data) was 89 days. The “T90 (time required to degrade Formula I to 90% of the initial concentration)” value ([1]; pH 5, extrapolated data) was 7.8 days, the “T90 (time required to degrade Formula I to 90% of the initial concentration)” value ([1]; pH 6) was 2.3 days and the “T90 (time required to degrade Formula I to 90% of the initial concentration)” value ([1]; pH 7) was 0.233 days. For the same molecule, the “T90 (time required to degrade Formula I to 90% of the initial concentration)” value ([1]; pH 8) was 0.0194 days, the “T90 (time required to degrade Formula I to 90% of the initial concentration)” value ([1]; pH 9) was 0.00486 days and the “T90 (time required to degrade Formula I to 90% of the initial concentration)” value ([1]; pH 10) was 0.000833 days. The solubility at 1 day ([2]; aqueous buffer, 50 mM citrate buffer (pH = 3)) was 920 µg/mL, the solubility at 1 day ([2]; aqueous buffer, 50 mM citrate buffer (pH = 4)) was 810 µg/mL and the solubility at 1 day ([2]; aqueous buffer, 50 mM citrate buffer (pH = 5)) was 720 µg/mL. For the same molecule, the solubility at 1 day ([2]; aqueous buffer, 50 mM citrate buffer (pH = 6)) was 720 µg/mL, the solubility at 1 day ([2]; aqueous buffer, 50 mM citrate buffer (pH = 7)) was 670 µg/mL and the solubility at 1 day ([2]; aqueous with cosolvent or surfactant or cyclodextrin, 25% PEG 400/water (w/v)) was 16000 µg/mL. It also gave a solubility at 1 day ([2]; aqueous with cosolvent or surfactant or cyclodextrin, 25% PG/water (w/v)) of 4000 µg/mL, a solubility at 1 day ([2]; aqueous with cosolvent or surfactant or cyclodextrin, 40% PG/water (w/v)) of 12000 µg/mL and a solubility at 1 day ([2]; aqueous with cosolvent or surfactant or cyclodextrin, 50% PEG 400/water (w/v)) of 25000 µg/mL. It also gave a solubility at 1 day ([2]; aqueous with cosolvent or surfactant or cyclodextrin, 50% PG/50 mM citrate buffer (pH = 3)) of 24000 µg/mL, a solubility at 1 day ([2]; aqueous with cosolvent or surfactant or cyclodextrin, 50% PG/50 mM citrate buffer (pH = 4)) of 25000 µg/mL and a solubility at 1 day ([2]; aqueous with cosolvent or surfactant or cyclodextrin, 50% PG/50 mM citrate buffer (pH = 5)) of 26000 µg/mL. It also gave a solubility at 1 day ([2]; aqueous with cosolvent or surfactant or cyclodextrin, 50% PG/50 mM citrate buffer (pH = 6)) of 27000 µg/mL, a solubility at 1 day ([2]; aqueous with cosolvent or surfactant or cyclodextrin, 50% PG/50 mM citrate buffer (pH = 7)) of 27000 µg/mL and a solubility at 1 day ([2]; aqueous with cosolvent or surfactant or cyclodextrin, 50% PG/water (w/v)) of 24000 µg/mL. The solubility at 1 day ([2]; aqueous with cosolvent or surfactant or cyclodextrin, 75% PEG 400/water (w/v)) was 24000 µg/mL, the solubility at 1 day ([2]; aqueous with cosolvent or surfactant or cyclodextrin, 75% PG/water (w/v)) was 45000 µg/mL and the solubility at 1 day ([2]; organic solvent or mixture, 100% PEG 400) was < 670 µg/mL. The solubility at 1 day ([2]; organic solvent or mixture, 100% PG) was 1200 µg/mL, the solubility at 1 day ([2]; saline or isotonic, 5% glucose/water) was 600 µg/mL and the solubility at 1 day ([2]; water) was 620 µg/mL. For the same molecule, the “Stability of Formula I (purity by HPLC)” value ([3]; 50% PG/75 mM citrate buffer (pH = 3)) was −2.4%, the “Stability of Formula I (purity by HPLC)” value [3, 5] was −2.2% and the “Stability of Formula I (purity by HPLC)” value ([3]; 50% PG/75 mM citrate buffer (pH = 5)) was −2.9%. The “Stability of Formula I (purity by HPLC)” value ([3]; 50% PG/water) was −9.3%, the solubility (physchem; aqueous with cosolvent or surfactant or cyclodextrin) was 10000 µg/mL and the solubility (physchem; saline or isotonic) was 150 µg/mL. For the same molecule, the “Stability of Formula I (purity by HPLC)” value (1 month, 0.15 mg/mL) was −0.68%, the “Stability of Formula I (purity by HPLC)” value (50% PEG 400/water, 10 mg/mL, initial point and 40° C./1 month) was −2.9% and the “Stability of Formula I (purity by HPLC)” value (50% PG/water, 10 mg/mL, initial point and 40° C./1 month) was −0.03%. For the same molecule, the “Stability of Formula I (purity by HPLC)” value ([4]; 50% PG/50 mM citrate buffer (pH = 4)) was −5.50%, the “Stability of Formula I (purity by HPLC)” value ([4]; 50% PG/50 mM tartrate buffer (pH = 4)) was −6.12% and the “Stability of Formula I (purity by HPLC)” value [4, 5] was −6.49%. For the same molecule, the “Stability of Formula I (purity by HPLC)” value ([4]; 50% PG/water) was −30.68%.
